Data on 80 compounds can be found in the METLIN SMRT retention time set (Domingo-Almenara et al. 2019).

Structures are written as SMILES.

The data set in a line: gradient 5% acetonitrile 3 min, to 50% in 2 min, to 85% in 15 min, held 3 min, 100 µL/min. Particulars: column: Zorbax Extend-C18 2.1 x 50 mm; eluents: water / acetonitrile, 0.1% formic acid. In outline:
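Standards, all pure, were combined into mixtures of ~100 molecules and run at 100 μL/min on a Zorbax Extend-C18 column (2.1 × 50 mm, 1.8 μm) with water and acetonitrile, each containing 0.1% formic acid. A coupled quadrupole time-of-flight mass spectrometer operated in positive and negative ionization mode. Retention time values come from computationally picked adduct peaks, each inspected manually.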
Compound `COc1ccc(C(=O)N2C[C@@H]3C[C@H]2C[C@@H]3NC(=O)c2cccs2)cc1F` returned an RP-LC retention time of 712 s.

As to `Cc1noc([C@@H]2CN(Cc3ccc(Cl)cc3F)C[C@H]2CO)n1`, the RP-LC retention time stood at 600 s.

The compound `O=C(Cc1ccc(F)cc1)NC1CCN(c2nnc3ccccn23)CC1` returned an RP-LC retention time of 629 s.

In turn, `CCOC(=O)CNC(=O)NCC(c1ccccc1)c1c[nH]c2ccccc12` (stereo not given) displayed an RP-LC retention time of 847 s.

Turning to `Cc1ccc(C)c(NC(=O)c2c(C)oc3nc(C)nc(N4CCOCC4)c23)c1`, the RP-LC retention time stood at 803 s.

For the compound `Cc1ccc(-c2cc3c(=O)n(Cc4noc(-c5ccc6c(c5)OCO6)n4)ccn3n2)c(C)c1`, the RP-LC retention time amounted to 1120 s.

For `O=S(=O)(NC1CCCCC1n1cc(-c2ccccc2)nn1)c1ccccc1` (stereo not given), the RP-LC retention time came to 789 s.

On to `COc1cc(OC)c(OC)cc1CC1C(=O)Nc2ccccc21` (stereo not given), for which the RP-LC retention time stood at 770 s.

On to `COc1ccc2c(c1)-c1nc(NC(=O)c3cccc(F)c3)sc1CC2`, for which the RP-LC retention time came out at 1120 s.

On to `CSc1ccc(CNC(=O)c2c(C)sc3ccn(C)c(=O)c23)cc1`, for which the RP-LC retention time worked out at 784 s.

For the compound `CS(=O)(=O)NCC(c1ccsc1)N1CCc2ccccc2C1` (stereo not given), the RP-LC retention time is 563 s.

In the case of `CCCCCc1cccnc1`, the RP-LC retention time was determined as 669 s.

`O=C(CC(c1cccc(F)c1)n1cccc1)N1CCN(c2ccccn2)CC1` (stereo not given) showed an RP-LC retention time of 686 s.

For `Cc1nnc(-c2cc(NC(=O)c3ccccc3Br)c(C)s2)o1`, the RP-LC retention time was determined as 858 s.

Turning to `COC[C@@H]1CN(S(=O)(=O)c2ccc(C#N)cc2)C[C@H]1c1ccccn1`, the RP-LC retention time was determined as 746 s.

Compound `CCc1noc(-c2nc(-c3ccccc3OC)no2)n1` came in with an RP-LC retention time of 986 s.

For the compound `Cc1ccc(S(=O)(=O)NCCn2c(C)cnc2C2CCC2)cc1F`, the RP-LC retention time worked out at 637 s.

The compound `Cc1ccc(OCC(=O)Nc2nnc(C3CC(=O)N(c4ccc(F)cc4)C3)o2)cc1` (stereo not given) had an RP-LC retention time of 792 s.

With `O=C(NCc1ccc(Cl)cc1)C1=C2CCCN2c2ccc(F)cc2S1(=O)=O`, the RP-LC retention time turned out to be 941 s.

Compound `CCc1nnc(NC(=O)CSc2nnc(NC(=O)NC(C)(C)C)s2)s1` displayed an RP-LC retention time of 672 s.

For `CCCCn1c(C(C)NC(=O)c2ccco2)nc2ccccc21` (stereo not given), the RP-LC retention time came out at 651 s.

As to `CCc1ccccc1NC(=O)c1cccn1Cc1noc(C)n1`, the RP-LC retention time is 845 s.

`O=C(Nc1ccc2c(c1)OCCO2)C1CCCN(c2cnc3nccnc3c2)C1` (stereo not given) showed an RP-LC retention time of 689 s.

For `COc1ccc(-c2noc(-c3nn(-c4ccc(C)cc4)ccc3=O)n2)cc1`, the RP-LC retention time was 919 s.

`COc1cc(OC)c(OC)cc1CN1CCC(C)(c2noc(C3CCOCC3)n2)CC1` displayed an RP-LC retention time of 642 s.

Regarding `COc1ccc(NC(=O)C2CCCN(S(=O)(=O)c3cc(-c4noc(C)n4)cs3)C2)cc1` (stereo not given), the RP-LC retention time was found to be 914 s.

The compound `O=C(c1ccco1)N1CCN(C(=O)c2nc(-c3ccc(Cl)cc3)n3c2CCCCC3)CC1` returned an RP-LC retention time of 741 s.

Regarding `CCn1nc(C)c(CCNC(=O)c2ccc(-c3ccc4c(c3)CCN4C(C)=O)cc2)c1C`, the RP-LC retention time was 676 s.

In the case of `COc1ccc(Cn2c(=O)c3ccnn3c3ccc(C(=O)O)cc32)cc1`, the RP-LC retention time worked out at 777 s.

`CSc1nc2cc(S(=O)(=O)N3CCCCC3)ccc2s1` came in with an RP-LC retention time of 1100 s.

For the compound `Cc1cnc(C(=O)N2CCCCCCNC(=O)[C@@H]3CCC[C@@H]32)cn1`, the RP-LC retention time is 649 s.

The compound `CN1C(=O)[C@H]2CN(Cc3ccc(N(C)C)cc3)C[C@H]2C1=O` displayed an RP-LC retention time of 525 s.

For `CCSCCOC(=O)C1=C(C)NC(=O)NC1c1cccc(OC)c1OC` (stereo not given), the RP-LC retention time is 792 s.

The compound `Cn1c(=O)c(N2CCN(C(=O)c3cc(F)ccc3F)CC2)nc2cccnc21` came in with an RP-LC retention time of 834 s.

Take `Cc1sc(-c2cc(C(F)(F)F)[nH]n2)cc1S(=O)(=O)NC1CCCC1`: the RP-LC retention time worked out at 1000 s.

`CCOc1ccc(NC(=O)c2cnc3c(c2)c(=O)n(C)c(=O)n3-c2ccc(F)cc2)cc1` had an RP-LC retention time of 866 s.

Consider `CCC(CO)NC(=O)C(=O)Nc1ccccc1SC` (stereo not given), for which the RP-LC retention time amounted to 710 s.

For `COC(=O)c1ncn2c1C(=O)N(Cc1ccccc1)C(C)(C(=O)NCc1ccccc1)C2` (stereo not given), the RP-LC retention time amounted to 715 s.

For the compound `COCc1cc2nn(CC(=O)Nc3c(C)cccc3C)c(=O)n2c(-c2ccccc2)n1`, the RP-LC retention time came out at 930 s.

`CCC1CCCCN1CCCNC(=O)c1cn(CCOC)c(=O)c2c1c1ccccc1n2C` (stereo not given) displayed an RP-LC retention time of 631 s.

On to `Cc1cc(C)cc(S(=O)(=O)N2CCCN(c3ccc(=O)n(-c4ccccc4)n3)CC2)c1`, for which the RP-LC retention time worked out at 901 s.

On to `Cc1cccc(C)c1NC(=O)Cn1cnc2nc3c(cc2c1=O)CC(C)CC3` (stereo not given), for which the RP-LC retention time is 758 s.

In the case of `Cc1ccccc1C1CC(=O)c2cnc(N3CCC(C(N)=O)CC3)nc2C1` (stereo not given), the RP-LC retention time was 750 s.

As for `COCc1cc(=O)n(CC(=O)Nc2cc(C(F)(F)F)ccc2Cl)c(N2CCOCC2)n1`, the RP-LC retention time was 1060 s.

In turn, `CCc1ccc(S(=O)(=O)N2CCCN(C)c3ccccc32)cc1` had an RP-LC retention time of 1100 s.

`CCCC(=O)Nc1ccc(CCc2nc3ccc(C(=O)NCC(C)C)cc3[nH]2)cc1`: the RP-LC retention time came to 646 s.

With `CSc1nnc(NC(=O)c2ccccc2Br)s1`, the RP-LC retention time was 737 s.

As to `Cc1ccc(-c2ccc(-n3nc(C)c(S(=O)(=O)Nc4ccc5c(c4)OCCO5)c3C)nn2)cc1`, the RP-LC retention time was 1010 s.

The compound `Cc1ccc(-c2nnc(-c3cccc(S(=O)(=O)N4CCCC4)c3)o2)cc1` yielded an RP-LC retention time of 1010 s.

`Cc1ccc(CNC(=O)c2ncn3c2C(=O)N(C2CC2)C(C)(C(=O)NC2CCCC2)C3)cc1` (stereo not given) came in with an RP-LC retention time of 770 s.

`Cc1ccc(-c2cc(C(=O)N(C)Cc3ccccc3)c(C)[nH]2)cc1C` returned an RP-LC retention time of 1040 s.

As to `c1ccc2c(N3CCCCCC3)nnc(-c3nc(C4CC4)no3)c2c1`, the RP-LC retention time is 895 s.

`O=C(c1ccc(F)c(F)c1)N1CCN(C(=O)c2nnn3c2COC(c2ccc(Cl)cc2)C3)CC1` (stereo not given) had an RP-LC retention time of 937 s.

For the compound `O=c1ccc(-c2ccccc2)nn1CCc1nc(-c2ccc(F)cc2)no1`, the RP-LC retention time is 970 s.

`Cc1cc2nc3sc(C(=O)NCCCN4CCN(C)CC4)cc(=O)n3c2cc1C`: the RP-LC retention time is 730 s.

For the compound `O=C(Nc1ccc(OCc2nnc(-c3ccccc3)o2)cc1)c1cccnc1Cl`, the RP-LC retention time came to 793 s.

`Cc1nn(-c2ccc(N3CCOCC3)nn2)c(C)c1CCC(=O)NCCCc1ccco1` yielded an RP-LC retention time of 692 s.

`COc1ccc(NC(=O)CCS(=O)(=O)Cc2ccccc2)c2ccccc12` yielded an RP-LC retention time of 688 s.

`CCC(=O)Nc1c(C)noc1/C=C\c1ccc(S(=O)(=O)N2CCN(c3ccccn3)CC2)cc1` came in with an RP-LC retention time of 646 s.

Take `CCOC(=O)Cn1nc(-c2nc(-c3ccc(Cl)cc3)no2)ccc1=O`: the RP-LC retention time is 1040 s.

For `O=C(NCC1CCCO1)c1n[nH]c2c1CCCCCC2` (stereo not given), the RP-LC retention time worked out at 724 s.

As for `CCNC(=O)c1n[nH]c2c1CN(C(=O)c1cc(F)ccc1F)CC2`, the RP-LC retention time came out at 648 s.

In turn, `O=C(Cn1c(C(F)(F)F)nc2cc3c(cc21)OCCO3)NCc1ccc(Cl)cc1` registered an RP-LC retention time of 885 s.

For the compound `CCn1cc(S(=O)(=O)N2CCC3(CC2)CC(OCc2ccccc2)CCO3)cn1` (stereo not given), the RP-LC retention time came out at 897 s.

`Cc1cc(N2CCN(C(=O)c3cccc(C(F)(F)F)c3)CC2)nc2nnc(C)n12`: the RP-LC retention time stood at 649 s.

Compound `Cc1ccc2[nH]cc(CCN3CC(C(=O)NCc4ccccc4Cl)CC3=O)c2c1` (stereo not given) displayed an RP-LC retention time of 846 s.

Compound `Cc1ccc(N2CC(c3nc(-c4cccc(-c5ccnn5C)c4)no3)CC2=O)cc1C` (stereo not given) yielded an RP-LC retention time of 1010 s.

Turning to `O=C(Cn1nc2c(N3CCSCC3)nccn2c1=O)NC1CCCC1`, the RP-LC retention time is 722 s.

Consider `CCC(C(=O)NCCN(C)C)n1c2ccccc2c2cnn(C)c(=O)c21` (stereo not given), for which the RP-LC retention time is 618 s.

Consider `COC(=O)c1ncn2c1C(=O)N(c1ccc(C)cc1C)C(C)(C(=O)NC1CCCC1)C2` (stereo not given), for which the RP-LC retention time amounted to 753 s.

Consider `Cc1ccc(NC(=O)Cn2nc3c(Oc4cccc(F)c4)nccn3c2=O)cc1`, for which the RP-LC retention time amounted to 880 s.

In the case of `CCNC(=O)N1CCCC1c1nc(C2CCOCC2)no1` (stereo not given), the RP-LC retention time was 612 s.

As for `O=C(Nc1ccccc1F)N1CC(c2nc(CCOCC3CCCC3)no2)C1`, the RP-LC retention time worked out at 946 s.

For `COc1ccc(N(Cc2nnc3n2CCCCC3)C(=O)Nc2ccccc2)cc1OC`, the RP-LC retention time was 692 s.

Consider `CCN(CC)C(=O)N1CCCC1Cc1noc(-c2cccnc2)n1` (stereo not given), for which the RP-LC retention time stood at 712 s.

For the compound `COc1ccc(-c2[nH]c3ccccc3c2C(C[N+](=O)[O-])c2cccs2)cc1OC` (stereo not given), the RP-LC retention time was 960 s.

As for `CCn1nnc2ccc(-c3noc(-c4ccc(OC)cc4)n3)cc21`, the RP-LC retention time was determined as 1030 s.

As for `CCOc1ccc(NC(=O)N2CCC3(CC2)NC(=O)c2ccccc2O3)cc1`, the RP-LC retention time turned out to be 739 s.

For the compound `CCN(CC)C(=O)c1ccc2c(c1)N(CC(=O)Nc1ccc(C(C)=O)cc1)C(=O)CO2`, the RP-LC retention time turned out to be 700 s.

As for `Cc1cccc(-c2noc(C3CCCN3C(=O)Nc3ccccc3C)n2)c1` (stereo not given), the RP-LC retention time worked out at 1010 s.
